Laboratory results taken from PMC6099102, “Effect of the Nature of Donor Atoms on the Thermodynamic, Kinetic and Relaxation Properties of Mn(II) Complexes Formed With Some Trisubstituted 12-Membered Macrocyclic Ligands” (Frontiers in Chemistry, 2018).
Read-outs that look alike come from different tables or passages of the source.

Columns and labels:
[1] = cited from earlier work
[2] = Longitudinal water proton relaxivity (r1p) of the Mn(II) complexes; assay type: physicochemical; conditions: 0.5 T field strength, 25 °C and pH = 7.4
Experimental: The relaxometric data were collected using a Bruker Minispec MQ20 NMR relaxometer. […] A datapoint plotted on figures represents an average of 5–6 T1 measurements (Figures S3–S9 in Supplementary Material). The data were fitted by using the molar r1p relaxivity value of the MnCl2 ([…] at 0.49 T and 25 °C). The equilibrium constants were calculated using the PSEQUAD program (Zékány and Nagypál, [1985]).
The longitudinal water proton relaxation rates (r1 = 1/T1-1/Tw) were measured at 20 MHz with a Bruker Minispec MQ-20 relaxometer (Bruker Biospin, Germany). Samples were thermostated by using a circulating water bath at 25.0 ± 0.2 °C. The longitudinal relaxation times (T1) were measured by the inversion-recovery method (180° − τ − 90°), averaging 5–6 data points collected for each concentration point obtained from 14 different τ values (τ values ranging between 0 to at least 6 times the expected T1). The relaxivity of the complexes was determined by titrating a nearly 1.0 mM ligand solution with a Mn(II) stock solution at pH = 7.22–7.43 (50 mM HEPES buffer, I = 0.15 M NaCl, 25 °C). Under these conditions, the only Mn(II) ion containing species present in solution is the [Mn(L)], which was supported by the r1 vs. pH profiles. The relaxivity of the complex was determined as the slope of the strait line obtained by plotting 1/T1p values as a function of Mn(II) concentration for samples with [Ligand] > [Mn(II)]. The relaxivity of [Mn(DOTP)]^6− and [Mn(DO3P)]^4− was determined in the pH range of 10.0–11.0 and 8.5–9.3, respectively where mainly the [Mn(DO3P)]^4− and [Mn(DOTP)]^6− complex exists in solution (Figures S4 and S9 in Supplementary Material).
The relaxivity (r1p, mM^−1s^−1) is defined as the longitudinal water proton relaxation rate in a solution containing 1.0 mM concentration of the paramagnetic species. It characterizes the efficiency of a paramagnetic metal chelate to enhance the solvent proton relaxation rate at a given magnetic field (usually 20 MHz) and temperature. The inner-sphere contribution to relaxivity is directly proportional to the number of metal bound water molecules (q), and therefore, relaxivity values may provide some useful information on the hydration state of paramagnetic complexes of similar molecular weights and electronic relaxation times. […] The r1p values of the Mn(II) complexes formed with heptadentate 12-membered macrocyclic ligands were determined at 0.5 T field strength and 25 °C and reported in Table 4 along with some relaxivity data published for the complexes of hexa-, hepta- and octadentate ligands. […] Below these pH ranges the phosphonate moieties undergo protonation, which further increases the relaxivity (2.60–2.90 mM^−1s^−1 values were observed near pH = 7.4, see Supplementary Material). Similar increase in the relaxivity (to 3.20 mM^−1s^−1 at 20 MHz, 37 °C) is observed for the [Mn(DOTA)]^2− complex upon its protonation and formation of the thermodynamically stable diprotonated [Mn(H2DOTA)] complex that exists as a non-hydrated chelate both in solution and in the solid state (Wang and Westmoreland, [2009]). The relaxivity of the diprotonated species at t → 0 time point was determined from the extrapolation of the relaxivity vs. time data collected after acidification of the samples containing the complexes. The X-ray crystallographic structure of [Mn(H2DOTA)] indicates the protonation of two trans carboxylate moieties (e.g., the coordination around the metal ion is similar to that observed in [Mn(trans-DO2A)] as determined by DFT calculations). Thus, the relaxivity of the diprotonated [Mn(H2DOTA)] and [Mn(H2DOTMA)] complexes is expected to be similar to that of [Mn(trans-DO2A)] (when q = 0). The value obtained by us is considerably higher, which highlights the importance of prototropic exchange as a useful tool to improve the relaxivity of the complexes (however, it has to be underlined that the protonation of the complex generally leads to a decrease in kinetic inertness).

[3] = Dissociation kinetics of the Mn(II) complexes (acid catalyzed dissociation, metal or ligand exchange reactions); assay type: physicochemical; conditions: I = 0.15 M NaCl, 25 °C
Experimental: The dissociation reactions were followed by UV-vis spectrophotometry at 269 nm for the pyclen derivatives or at 300 nm for other complexes in the pH range of 3.6–5.0 for the exchange reactions with Cu(II) and up to pH = 6.0 when Zn(II) was used as a ligand scavenger. The acid catalyzed dissociation reactions were performed in the HCl concentration range of 0.05–1.0 M. The concentration of the complexes in the samples was 0.25 mM, while the concentration of the exchanging metal ion in the metal initiated transchelation reactions was 10–40 times higher to ensure pseudo-first-order conditions. Relaxometry was used to follow the transchelation reactions of [Mn(DOTAM)]^2+, [Mn(DO3AM^H)]^2+, [Mn(DO3A)]^−, [Mn(PCTA)]^− and [Mn(ODO3A)]^− with Cu(II)/Zn(II) ions in the pH range of 3.6–5.5 (Figures S17–S19 in Supplementary Material). The concentration of the complexes in these samples was set to 1.0–2.0 mM to achieve relatively large change during the dissociation reaction. […] The temperature was maintained at 25 °C and the ionic strength of the solutions was kept constant at 0.15 M with NaCl. N,N′-dimethyl- (DMP) and N-methyl-piperazine (NMP) buffers (log K2H = 4.18 and 4.90 at 25 °C and I = 0.15 M NaCl, respectively) were used at 0.05 M concentration to keep the pH constant. The pseudo-first-order rate constants (kobs) were calculated by fitting the absorbance or relaxivity-time data pairs to Equation (1) (1) Xt=(X0-Xe)e^-kobst+Xe where Xt, X0, and Xe are the absorbance or relaxivity at time t, at the start and at equilibrium, respectively. The calculations were performed with the computer program Micromath Scientist, version 2.0 (Salt Lake City, UT, USA) using a standard least-squares procedure.
The kinetic inertness of the Mn(II) complexes is the other important parameter for the complexes considered for use in vivo. The inertness of Mn(II) complexes formed with trisubstituted 12-memberd macrocyclic ligands were characterized either by studying the rates of acid catalyzed dissociation or by studying transmetallation reactions occurring between the complexes and a suitable exchanging metal ion such as Zn(II) or Cu(II). The demetallation reactions of labile complexes were performed at high pH by following the ligand exchange reactions with trans-CDTA and DTPA ligands. The demetallation reactions were studied in the presence of a large Cu(II)/Zn(II)/trans-CDTA/DTPA excess or by using high acid concentration in order to ensure pseudo-first-order conditions (Equation 6). Scheme 1 outlines all the possible dissociation pathways for the Mn(II) complexes. […] The reactions of the released Mn(II) and L ligand with the exchanging L' and M' reactants are assumed to be very rapid.
The rate of dissociation can be expressed by the Equation (6), where kobs is the pseudo-first-order rate constant and [Mn(L)]t is the total concentration of the species containing [Mn(L)] complex. The [Mn(L)]t will differ slightly depending on the experimental conditions (in the presence of a large metal or ligand excess). As [Mn(L)]t = [Mn(L)] + [Mn(HL)] + [Mn(H2L)] + [Mn(L)M] + [Mn(L)(L')] + [Mn(HL)(L')] for reactions performed at high pH (in the pH range of 3.0–5.0 often applied in Cu(II) exchange reactions) will involve fewer protonated species while the acid catalyzed dissociation reactions run in the strongly acidic media (0.1–1.0 M acid concentration range) predominantly contain protonated species ([Mn(L)]t = [Mn(L)]+[Mn(HL)]+[Mn(H2L)]). (6) -d[MnL]t/dt=kobs[MnL]t
By taking into account the various complex species and the possible reaction pathways as well as the protonation and stability constants of the reactive intermediates, the following equation (Equation 7) can be derived to describe the rates of dissociation. […]

[4] = cited from earlier work; remark: listed apart in the source
[5] = cited from earlier work; for Σ log K2H: log K1H + log K2H
[6] = I = 0.1 M KCl, cited from earlier work; for pMn: pH = 7.4, cM = cL = 10^−5 M
[7] = ref Tircsó and Woods (in preparation)
[8] = I = 0.1 M KCl, ref Forgács et al., [2016]
[9] = I = 0.1 M KCl, ref Forgács et al., [2017]
[10] = Mn(II) complex, ref Forgács et al., [2017]
[11] = Mn(II) complex, ref Forgács et al., [2016]
[12] = 0.1 M KCl, ref Takács et al., [2014]
[13] = Mn(II) complex, ref Takács et al., [2014]

## CC(C(=O)[O-])N1CCN(C(C)C(=O)O)CCN(C(C)C(=O)[O-])CCN(C(C)C(=O)O)CC1.[Mn+2] (centres unmarked) [[Mn(H2DOTMA)]]
[1]; [7]
  r1p: 2.98 mM⁻¹ s⁻¹

## O=C([O-])CN1CCOCCN(CC(=O)[O-])CCN(CC(=O)[O-])CC1.[Mn+2] [[Mn(ODO3A)]^−]
[2]
  r1p: 1.40 mM⁻¹ s⁻¹
[3]
  k1 (proton-assisted dissociation): 27 ± 2 M⁻¹ s⁻¹
  k2 (proton-assisted dissociation): (1.5 ± 0.3) × 10^5 M^−2s^−1
[3]; half-life of dissociation calculated for pH 7.4, 10 μM exchanging metal ion
  t1/2 pH = 7.4 cM = 10^−5 M: 1.8 × 10^2 h

## O=C([O-])CN1CCNCCN(CC(=O)[O-])CCNCC1.[Mn+2] [[Mn(trans-DO2A)]]
[4]; ref Garda et al. ([2016])
  k1 (proton-assisted dissociation): 85 M⁻¹ s⁻¹
  k2 (proton-assisted dissociation): 3.0 × 10^6 M^−2s^−1
  t1/2 pH = 7.4 cM = 10^−5 M: 48 h
[1]; ref Rolla et al. ([2013])
  r1p: 1.50^[a] mM^−1s^−1

## O=C([O-])CN1CCN(CC(=O)O)CCN(CC(=O)[O-])CCN(CC(=O)O)CC1.[Mn+2] [[Mn(H2DOTA)]]
[1]; 0.5 T field strength (20 MHz) and 37 °C, ref Wang and Westmoreland ([2009])
  r1p: 3.20 mM⁻¹ s⁻¹

## CN(C)C(=O)CN1CCNCCNCCN(CC(=O)N(C)C)CC1.[Mn+2] [[Mn(cis-DO2AM^Me2)]^2+]
[4]; [8]
  k1 (proton-assisted dissociation): 8.7 M⁻¹ s⁻¹
  t1/2 0.1 M HCl: 0.0132 min
  t1/2 pH = 7.4 cM = 10^−5 M: 556 h
[1]; ref Forgács et al. ([2016])
  r1p: 2.50^[h] mM^−1s^−1

## CC(C(=O)[O-])N1CCN(C(C)C(=O)[O-])CCN(C(C)C(=O)[O-])CCN(C(C)C(=O)[O-])CC1.[Mn+2] (centres unmarked) [[Mn(DOTMA)]^2−]
[4]; 1.0 M KCl, proton-assisted dissociation of the [Mn(H2L)] complex, ref Tircsó and Woods (in preparation)
  k1 (proton-assisted dissociation): 3.96e-05 M⁻¹ s⁻¹
[4]; 1.0 M KCl, ref Tircsó and Woods (in preparation)
  t1/2 0.1 M HCl: 103 min
[4]; 1.0 M KCl, spontaneous dissociation of the [Mn(H2L)] complex, ref Tircsó and Woods (in preparation)
  k0 (spontaneous dissociation): 0.000104 s⁻¹
[1]; [7]
  r1p: 1.76 mM⁻¹ s⁻¹

## O=C(CN1CCNCCNCCN(CC(=O)NCc2ccccc2)CC1)NCc1ccccc1 [cis-DO2AM^Bz2]
[5]; [9]
  log K1H: 9.62
  log K2H: 6.90
  Σ log K2H: 16.52
[6]; [10]
  log KML: 10.72
  log KMLOH: 9.44
[6]; ref Forgács et al., [2017]
  pMn: 6.69

## CN(C)C(=O)CN1CCN(CC(=O)N(C)C)CCN(Cc2ccccc2)CCN(Cc2ccccc2)CC1 [cis-Bz2DO2AM^Me2]
[5]; [9]
  log K1H: 11.11
  log K2H: 8.22
  Σ log K2H: 19.33
[6]; [11]
  log KML: 11.54
  log KMLOH: 10.44
[6]; ref Forgács et al., [2016]
  pMn: 6.00

## O=C(O)CN1CCN(CC(=O)O)CCN(CC(=O)O)CCN(CC(=O)O)CC1 [DOTA]
[4]; ref Drahos et al., [2011]
  k1 (proton-assisted dissociation): 0.040 M⁻¹ s⁻¹
[5]; [12]
  log K1H: 11.41
  log K2H: 9.83
  log K3H: 4.38
  log K4H: 4.63
  log K5H: 1.92
  log K6H: 1.58
  Σ log K2H: 21.24
[6]; [13]
  log KML: 19.44
  log KMLH: 3.96
[6]; ref Takács et al., [2014]
  pMn: 9.02

## CN(C)C(=O)CN1CCNCCNCCN(CC(=O)N(C)C)CC1 [cis-DO2AM^Me2]
[5]; [8]
  log K1H: 10.14
  log K2H: 8.38
  Σ log K2H: 18.52
[6]; [11]
  log KML: 12.64
[6]; ref Forgács et al., [2016]
  pMn: 6.98

## O=C([O-])CN1CCNCCNCCN(CC(=O)[O-])CC1.[Mn+2] [[Mn(cis-DO2A)]]
[4]; ref Garda et al. ([2016])
  k1 (proton-assisted dissociation): 100 M⁻¹ s⁻¹
  k2 (proton-assisted dissociation): 1.6 × 10^6 M^−2s^−1
  t1/2 pH = 7.4 cM = 10^−5 M: 58 h
[1]; ref Rolla et al. ([2013])
  r1p: 2.10^[a] mM^−1s^−1
